Reference: the METLIN SMRT retention time set (Domingo-Almenara et al. 2019)

Assay: gradient 5% acetonitrile 3 min, to 50% in 2 min, to 85% in 15 min, held 3 min, 100 µL/min
Conditions: column: Zorbax Extend-C18 2.1 x 50 mm; eluents: water / acetonitrile, 0.1% formic acid
Summary of the method: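 Retention times of pure standards were taken from adduct peaks that were selected by computer and manually inspected. Over 3 months, mixtures of ~100 molecules were run by HPLC–quadrupole time-of-flight mass spectrometry in positive and negative ionization mode. The Zorbax Extend-C18 column (2.1 × 50 mm, 1.8 μm) ran at 100 μL/min in water and acetonitrile, each containing 0.1% formic acid, with 40 μL dead volume and 900 μL dwell volume.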

SMILES	RP-LC retention time [s]
Cc1ccc(C(=O)N2CCC3(CC2)N=C(c2ccccc2)NO3)s1	810
CCN(CC)CCOc1ccc(C(=C(Cl)c2ccccc2)c2ccccc2)cc1	1010
COc1cccc(NC(=O)Cn2nc3c(Oc4ccccc4C)nccn3c2=O)c1	866
Cc1ccc(CN2C(=O)CN(S(=O)(=O)c3ccccc3)CC2(C)C(=O)NCCC(C)C)cc1 (stereo not given)	1040
Cc1ccc(-c2nc(-c3ccc(-c4noc(CNC(=O)c5ccco5)n4)cc3)cs2)s1	1130
CCc1ccc(CNC(=O)c2ccc3c(c2)N(C)C(=O)C2CCCCN32)cc1 (stereo not given)	663
CCNC(=O)c1nc2cc(C)c(C)cc2n(CC)c1=O	745
CCOC(=O)C(=O)Nc1cccc(F)c1	723
CCNS(=O)(=O)c1cccc(-c2nnc(-c3ccc(C)cc3)o2)c1	922
COc1cccc(CNc2ncccc2-c2nnc(-c3ccccc3)o2)c1	1170
CCc1ccccc1NC(=O)N1CCCC1c1nc(-c2ccc(F)cc2F)no1 (stereo not given)	987
COc1ccc(N2C=C(C#N)S(=O)(=O)c3ccc(Cl)cc32)cc1OC	916
O=C(O)CSc1nnc(Br)n1-c1ccc(C2CC2)c2ccccc12	949
O=C(CCC1CCCN(S(=O)(=O)c2ccccc2)C1)NCC1CCCCC1 (stereo not given)	956
COc1ccc(-c2ncc3c(n2)CCN(C(=O)Nc2ccc(F)c(Cl)c2)C3)cc1	1020
CN1CCN(Cc2nc(-c3ccc(N(C)Cc4ccccc4)nc3)no2)CC1	638
O=C1CCCc2cc(S(=O)(=O)N3CCC(C(=O)NCc4ccc5c(c4)OCO5)CC3)ccc2N1	706
CC(C)CNC(=O)CCc1nc2ccccc2n(CC(=O)NCc2ccccc2)c1=O	769
O=C(Nc1cccc([N+](=O)[O-])c1)NC1CCS(=O)(=O)C1 (stereo not given)	626
COc1cc2c(cc1OC)C(C(=O)N1CCN(c3ccccn3)CC1)C1c3ccccc3CCN1C2=O (stereo not given)	590
c1ccc(CNc2c(-c3ccccc3)nc3ncccn23)cc1	709
COc1cc(OC)c(NC(=O)C2CCN(C(=O)c3cc(-c4ccncc4)n[nH]3)CC2)cc1Cl	611
CCOc1ccccc1CNC(=O)CN1CCN(Cc2cccc(Cl)c2)C1=O	910

SMILES	RP-LC retention time [s]
COCCNC(=O)NC1CCN(c2nc3cccnc3n(Cc3ccc(C)cc3)c2=O)CC1	882
COc1ccc(NC(=O)N2CCC(n3cnc4cc(F)ccc4c3=O)CC2)c(OC)c1	732
Oc1c(C(Nc2cccc(Cl)c2)c2cccnc2)ccc2cccnc12 (stereo not given)	692
O=C(NC1CCCCC1)N1CCc2nc(-c3ccc(Cl)cc3)ncc2C1	1050
O=C(Nc1c(-c2ccc(F)cc2)nc2ccccn12)c1cccc([N+](=O)[O-])c1	684
O=C(c1nnc(-c2ccc(S(=O)(=O)N3CCOCC3)cc2)o1)N1CCCC1	734
COc1ccccc1CNc1ncc(C(=O)O)c(C(C)C)n1	898
CCOc1ccc(NC(=O)C2CCCN(S(=O)(=O)c3cc(-c4noc(C)n4)cs3)C2)cc1 (stereo not given)	982
N#CCCSc1ccccc1NC(=O)c1ccc([N+](=O)[O-])s1	846
COc1ccc(-c2ncc3c(n2)CCN(S(=O)(=O)c2ccc(Cl)cc2)C3)cc1	1100
CN(c1nc(-c2ccc(Cl)cc2)nc2ccccc12)C1CCCCC1	941
Cc1nc(-c2noc(-c3cccc(F)c3)n2)cn1CC(=O)Nc1ccccc1	856
Cc1ccc(NC(=O)N2CCN(c3nc(N)nc4sc(-c5cccnc5)nc34)CC2)cc1	799
COc1cccc(CNC(=O)C2(C)CCCN(C(=O)Nc3ccccc3)C2)c1 (stereo not given)	839
Cc1nc2nc(-c3ccco3)nn2c(N2CCN(c3ccccn3)CC2)c1C	596
COc1ccc(-c2cn3c(CC(=O)NC4CCCCC4)csc3n2)cc1OC	702
COC(=O)C1=C(C)N(C2CCCCC2)C(=O)C1(NC(=O)c1cccc(OC)c1)C(F)(F)F (stereo not given)	1070
Cc1cc(Nc2ccc(NC(=O)Nc3ccccc3)cc2)nc(N2CCOCC2)n1	662
Cc1ccc(N(C)S(=O)(=O)c2cc3n(c2)CCCNC3=O)cc1	663
Cc1nnc2cc(N3CCN(Cc4csc5c4CCCC5)CC3)cnn12	589
CS(=O)(=O)Nc1ccc(C2(C(=O)NCc3ccc(F)c(Cl)c3)CCCCC2)cc1	950
CCOc1ccccc1C(=O)Nc1ccc2c(c1)Sc1ncccc1C(=O)N2CC	822
Cn1cc(CCNC(=O)c2ccccc2Br)c2cccnc21	660

SMILES	RP-LC retention time [s]
CCCCOc1ccc2c(=O)c3ccc(O)cc3oc2c1	928
CCOC(=O)c1oc2ccc(S(=O)(=O)N3CCCCCCNC(=O)[C@@H]4CCC[C@@H]43)cc2c1C	1060
Cc1cccc(S(=O)(=O)N2CCC(c3cc(N)on3)CC2)c1	615
CN(C)S(=O)(=O)c1ccc(-c2nnc(C(=O)NCCCN3CCCC3=O)o2)cc1	655
Cc1cc([N+](=O)[O-])nn1CC(=O)NCc1cccs1	572
Cc1sc(C)c(S(=O)(=O)Nc2ccccc2Cl)c1-c1cc(C(F)(F)F)on1	1140
Cc1cccc(-c2nc(Cc3noc(CNC(=O)c4ccccc4)n3)c(C)o2)c1	924
COc1ccc(N2CCN(C(=O)c3cn4c(n3)CCCC4)CC2)cc1	574
O=C1CC(c2nc(-c3ccccc3Cl)no2)CN1c1ccc2c(c1)OCO2 (stereo not given)	933
COc1ccc(-n2c(=O)n(C)c(=O)c3cc(C(=O)Nc4ccc(C)cc4)cnc32)cc1	918
CCCNc1cc(N2CCC(CCC(=O)N3CCCN(c4ncccn4)CC3)CC2)ncn1	573
COc1ccc(NC(=O)Cn2c(=O)c(CCC(=O)NCC(C)C)nc3ccccc32)cc1OC	756
COC(=O)c1c(NCCN2CCCc3ccccc32)c2cccc(Cl)c2[nH]c1=O	955
O=C(NCc1ccc(F)cc1F)c1cn2cc(Cl)ccc2n1	858
O=C(NC1CCCC1)c1cccnc1N1CCOCC1	637
CCN(CC)C(=O)c1c(C)sc2ccn(C)c(=O)c12	639
Cc1noc(C)c1CNC(=O)c1ccc2nc[nH]c2c1	561
Cc1cccc(C)c1Nc1c(-c2ccc(N(C)C)cc2)nc2ncccn12	747
COc1ccc(NC(=O)Cc2csc3nc(-c4cccc(Cl)c4)cn23)cc1OC	831
CCc1nnc(-c2coc(S(=O)(=O)N3CCN(C4CCCCC4)CC3)c2)o1	628
Cc1cc(NC(=O)c2cc(C)n3nccc3n2)ccc1F	942
CC1(C(=O)NCc2ccc(Cl)cc2)CN(S(C)(=O)=O)CC(=O)N1c1ccc(F)cc1 (stereo not given)	800
COc1ccc(NC(=O)Cn2nc3n(c2=O)CCCC3)cc1OC	595

SMILES	RP-LC retention time [s]
Cc1cc(C)n(-c2nc(C)c(C(=O)Nc3ccc(F)cc3)s2)n1	1060
Cc1noc(C)c1CNC(=O)C(C)Oc1ccc(Cl)cc1 (stereo not given)	811
Cc1ccc(Cl)cc1NC(=O)Nc1cccc(-c2ccc(N3CCOCC3)nn2)c1	753
COc1ccc(NC(=O)Cn2nc3nc(N4CCCCC4C)ccn3c2=O)cc1 (stereo not given)	755
CCOC(=O)CCNC(=O)N1c2ccccc2CC1c1nc(C(C)C)no1 (stereo not given)	609
Cc1cc(C2CCCN2C(=O)c2c(F)cccc2Cl)no1 (stereo not given)	773
Cc1nn(-c2ccc(C(=O)N3CCN(C)CC3)cc2)c2c1C(=O)CC(C)(C)C2	593
COc1ccc(N2C(=O)C3N=NN(Cc4nc(-c5ccc(Cl)cc5)no4)C3C2=O)cc1 (stereo not given)	1000
COCCCn1c(=O)c2ccccc2n(Cc2nc(-c3ccc(OC)cc3OC)no2)c1=O	884
O=C(CC1CCCCC1)N1CCN(c2ccc(=O)n(-c3ccc(F)cc3)n2)CC1	901
COc1ccc(N2CC(c3noc(-c4ccc(F)c(F)c4)n3)CC2=O)cc1 (stereo not given)	948
CCn1nc(C)c(CCNC(=O)c2ccc3c(c2)NC(=O)C2CCCCN32)c1C (stereo not given)	636
O=C(Nc1nnc(C2CC(=O)N(c3ccc(F)cc3)C2)o1)c1ccccc1F (stereo not given)	701
CN(C)c1nc2ncn3c(=O)n(CC(=O)Nc4ccc(Cl)cc4F)nc3c2s1	748
CC(C)c1nc2c(NC(=O)C3CC3)cccn2n1	733
O=C(CN1C[C@H]2C[C@H](C1)[C@H]1CCCC(=O)N1C2)Nc1ccc2c(c1)OCCO2	587
CCOCCCNC(=O)N1CCCCCC1c1ccc(C)cc1 (stereo not given)	954
O=C(CCc1nnc2c(N3CCCCC3)nc3ccccc3n12)NCc1ccccc1F	903
O=C(C1CCC1)N1CCCC(CN2CCOCC2)CC1 (stereo not given)	574
Cc1ccccc1S(=O)(=O)N1CCC(n2cnnc2-c2ccccc2)CC1	773
CSc1cccc(NC(=O)N2CCC(CC(=O)NCc3cccc(F)c3)CC2)c1	843
